According to patent publication US11427567B2, “Imidazolyl pyrimidinylamine compounds as CDK2 inhibitors” (Incyte Corporation, priority 2019, dated 2022):
pIC50: −log10 of the molar value.

Molecular target: CDK2/Cyclin E1 (Homo sapiens (Human), UniProt P24941)
Test: CDK2/Cyclin E1 HTRF enzyme activity assay (Example A)
Type: biochemical
Settings: 1 mM ATP
Procedure: Assays were conducted in white 384-well polystyrene plates in a final reaction volume of 8 μL. […] HTRF signals were read after 1 hour at room temperature on a PHERAstar FS plate reader (BMG Labtech). Data was analyzed with IDBS XLFit and GraphPad Prism 5.0 software using a three or four parameter dose response curve to determine IC50 for each compound.

pIC50, ≥ 7.30:
CS(=O)(=O)N1CC[C@H](Nc2ncc(C(F)(F)F)c(-c3cn(-c4cccc(C#N)c4C(F)(F)F)cn3)n2)[C@H](F)C1 [Example 69, 3-(4-(2-(((3R,4S)-3-Fluoro-1-(methylsulfonyl)piperidin-4-yl)amino)-5-(trifluoromethyl)pyrimidin-4-yl)-1H-imidazol-1-yl)-2-(trifluoromethyl)benzonitrile]
CNC(C)c1ccc(-n2cnc(-c3nc(NC4CCN(S(C)(=O)=O)CC4)ncc3C(F)(F)F)c2)c(Cl)c1 (single isomer, unassigned) [Example 276, 4-(1-(2-Chloro-4-(1-(methylamino)ethyl)phenyl)-1H-imidazol-4-yl)-N-(1-(methylsulfonyl)piperidin-4-yl)-5-(trifluoromethyl)pyrimidin-2-amine]
CNCc1ccc(-n2cnc(-c3nc(NC4CCN(S(C)(=O)=O)CC4)ncc3C(F)(F)F)c2)c(Cl)c1 [Example 3, 4-(1-(2-Chloro-4-((methylamino)methyl)phenyl)-1H-imidazol-4-yl)-N-(1-(methylsulfonyl)piperidin-4-yl)-5-(trifluoromethyl)pyrimidin-2-amine]
[2H]C([2H])([2H])NC(=O)c1ccc(-n2cnc(-c3nc(NC4CCN(S(C)(=O)=O)CC4)ncc3C(F)(F)F)c2)c(C)n1 [Example 131, 6-Methyl-N-(methyl-d)-5-(4-(2-((1-(methylsulfonyl)piperidin-4-yl)amino)-5-(trifluoromethyl)pyrimidin-4-yl)-1H-imidazol-1-yl)picolinamide]
CN1CCN(Cc2cccc(-n3cnc(-c4nc(NC5CCN(S(C)(=O)=O)CC5)ncc4C(F)(F)F)c3)c2Cl)CC1 [Example 78, 4-(1-(2-Chloro-3-((4-methylpiperazin-1-yl)methyl)phenyl)-1H-imidazol-4-yl)-N-(1-(methylsulfonyl)piperidin-4-yl)-5-(trifluoromethyl)pyrimidin-2-amine]
CNCc1ccc(-n2cnc(-c3nc(N[C@H]4CCN(S(C)(=O)=O)C[C@H]4C)ncc3C(F)(F)F)c2)c(Cl)c1 [Example 182, 4-(1-(2-Chloro-4-((methylamino)methyl)phenyl)-1H-imidazol-4-yl)-N-((3R,4S)-3-methyl-1-(methylsulfonyl)piperidin-4-yl)-5-(trifluoromethyl)pyrimidin-2-amine]
CS(=O)(=O)N1CCC(Nc2ncc(C(F)(F)F)c(-c3cn(-c4ccc(CN5CC(O)C5)cc4Cl)cn3)n2)CC1 [Example 199, 1-(3-Chloro-4-(4-(2-((1-(methylsulfonyl)-piperidin-4-yl)amino)-5-(trifluoromethyl)-pyrimidin-4-yl)-1H-imidazol-1-yl)benzyl)-azetidin-3-ol]
CC1CN(Cc2ccc(-n3cnc(-c4nc(NC5CCN(S(C)(=O)=O)CC5)ncc4C(F)(F)F)c3)c(Cl)c2F)C1 [Example 270, 4-(1-(2-Chloro-3-fluoro-4-((3-methylazetidin-1-yl)methyl)phenyl)-1H-imidazol-4-yl)-N-(1-(methylsulfonyl)piperidin-4-yl)-5-(trifluoromethyl)pyrimidin-2-amine]
CCN1CCN(Cc2cc(F)c(-n3cnc(-c4nc(N[C@H]5CCN(S(C)(=O)=O)C[C@H]5F)ncc4C(F)(F)F)c3)c(F)c2)CC1 [Example 447, 4-(1-(4-((4-Ethylpiperazin-1-yl)methyl)-2,6-difluorophenyl)-1H-imidazol-4-yl)-N-((3R,45)-3-fluoro-1-(methylsulfonyl)piperidin-4-yl)-5-(trifluoromethyl)pyrimidin-2-amine]
CS(=O)(=O)N1CCC(Nc2ncc(C(F)(F)F)c(-c3cn(-c4ccccc4Cl)cn3)n2)CC1 [Example 55, 4-(1-(2-Chlorophenyl)-1H-imidazol-4-yl)-N-(1-(methylsulfonyl)piperidin-4-yl)-5-(trifluoromethyl)pyrimidin-2-amine]
CC(C)(O)Cn1cnc(-c2nc(N[C@@H]3CCN(S(=O)(=O)C4CC4)C[C@H]3F)ncc2C(F)(F)F)c1 [Example 333, 1-(4-(2-(((3R,4R)-1-(Cyclopropylsulfonyl)-3-fluoropiperidin-4-yl)amino)-5-4-yl)-1H-imidazol-1-yl)-2-methylpropan-2-ol]
CC(C)N1CC(c2ccc(-n3cnc(-c4nc(NC5CCN(S(C)(=O)=O)CC5)ncc4C(F)(F)F)c3)c(C#N)c2)C1 [Example 427, 5-(1-Isopropylazetidin-3-yl)-2-(4-(2-((1-(methylsulfonyl)piperidin-4-yl)amino)-5-(trifluoromethyl)pyrimidin-4-yl)-1H-imidazol-1-yl)benzonitrile]
CN(C)C1CCN(c2ccc(-n3cnc(-c4nc(NC5CCN(S(C)(=O)=O)CC5)ncc4C(F)(F)F)c3)c(Cl)c2)CC1 [Example 145, 4-(1-(2-Chloro-4-(4-(dimethylamino)-piperidin-1-yl)-phenyl)-1H-imidazol-4-yl)-N-(1-(methylsulfonyl)-piperidin-4-yl)-5-(trifluoromethyl)-pyrimidin-2-amine]
Cc1nccc(-n2cc(-c3nc(N[C@H]4CCN(S(C)(=O)=O)C[C@H]4F)ncc3C(F)(F)F)nc2C)c1F [Example 313, N-((3R,4S)-3-Fluoro-1-(methylsulfonyl)piperidin-4-yl)-4-(1-(3-fluoro-2-methylpyridin-4-yl)-2-methyl-1H-imidazol-4-yl)-5-(trifluoromethyl)pyrimidin-2-amine]
CCN1CCN(Cc2cc(F)c(-n3cnc(-c4nc(NC5CCN(S(C)(=O)=O)CC5)ncc4C(F)(F)F)c3)c(Cl)c2)CC1 [Example 396, 4-(1-(2-Chloro-4-((4-ethylpiperazin-1-yl)methyll)-6-fluorophenyl)-1H-imidazol-4-yl)-N-(1-(methylsulfonyl)piperidin-4-yl)-5-(trifluoromethyl)pyrimidin-2-amine]
Cn1cnc(-c2nc(NC3CCN(S(C)(=O)=O)CC3)ncc2C(F)(F)F)c1C#N [Example 16, 1-Methyl-4-(2-((1-(methylsulfonyl)piperidin-4-yl)amino)-5-(trifluoromethyl)pyrimidin-4-yl)-1H-imidazole-5-carbonitrile]
CC(C)NCCc1cccc(-n2cnc(-c3nc(NC4CCN(S(C)(=O)=O)CC4)ncc3C(F)(F)F)c2)c1Cl [Example 465, 4-(1-(2-Chloro-3-(2-(isopropylamino)ethyl)phenyl)-1H-imidazol-4-yl)-N-(1-(methylsulfonyl)piperidin-4-yl)-5-(trifluoromethyl)pyrimidin-2-amine]
C[C@@H]1CN(S(=O)(=O)C2CC2)CC[C@@H]1Nc1ncc(C(F)(F)F)c(-c2cn(CC(C)(C)O)cn2)n1 [Example 332, 1-(4-(2-(((3R,4S)-1-(Cyclopropylsulfonyl)-3-methylpiperidin-4-yl)amino)-5-(trifluoromethyl)pyrimidin-4-yl)-1H-imidazol-1-yl)-2-methylpropan-2-ol]
CN(C)CCOc1ccc(-n2cnc(-c3nc(NC4CCN(S(C)(=O)=O)CC4)ncc3C(F)(F)F)c2)c(C#N)c1 [Example 435, 5-(2-(Dimethylamino)ethoxy)-2-(4-(2-((1-(methylsulfonyl)piperidin-4-yl)amino)-5-(trifluoromethyl)pyrimidin-4-yl)-1H-imidazol-1-yl)benzonitrile]
CCNCc1ccc(-n2cnc(-c3nc(N[C@@H]4CCN(S(C)(=O)=O)C[C@H]4F)ncc3C(F)(F)F)c2)c(Cl)c1 [Example 401]
CS(=O)(=O)N1CCC(Nc2ncc(C(F)(F)F)c(-c3cn(-c4ccc(CN5CC(F)C5)cc4Cl)cn3)n2)CC1 [Example 197, 4-(1-(2-Chloro-4-((3-fluoroazetidin-1-yl)methyl)phenyl)-1H-imidazol-4-yl)-N-(1-(methyl-sulfonyl)piperidin-4-yl)-5-(trifluoro-methyl)pyrimidin-2-amine]
Cc1nc(-c2nc(NC3CCN(S(C)(=O)=O)CC3)ncc2C(F)(F)F)cn1-c1ccc(OCCN2CCCC2)cc1F [Example 424, 4-(1-(2-Fluoro-4-(2-(pyrrolidin-1-yl)ethoxy)phenyl)-2-methyl-1H-imidazol-4-yl)-N-(1-(mehtylsulfonyl)piperidin-4-yl)-5-(trifluoromethyl)pyrimidin-2-amine]
CC1(C)CN(Cc2ccc(-n3cnc(-c4nc(NC5CCN(S(C)(=O)=O)CC5)ncc4C(F)(F)F)c3)c(Cl)c2)C1 [Example 200, 4-(1-(2-Chloro-4-((3,3-dimethyl-azetidin-1-yl)methyl)-phenyl)-1H-imidazol-4-yl)-N-(1-(methyl-sulfonyl)piperidin-4-yl)-5-(trifluoromethyl)-pyrimidin-2-amine]
Cc1nc(-c2nc(NC3CCN(S(C)(=O)=O)CC3)ncc2C(F)(F)F)cn1-c1ccccc1F [Example 102, 4-(1-(2-Fluorophenyl)-2-methyl-1H-imidazol-4-yl)-N-(1-(methylsulfonyl)piperidin-4-yl)-5-(trifluoromethyl)pyrimidin-2-amine]
Cn1cc(S(=O)(=O)N2CCC(Nc3ncc(C(F)(F)F)c(-c4ncn(C)c4Br)n3)CC2)cn1 [Example 383, 4-(5-Bromo-1-methyl-1H-imidazol-4-yl)-N-(1-((1-methyl-1H-pyrazol-4-yl)sulfonyl)piperidin-4-yl)-5-(trifluoromethyl)pyrimidin-2-amine]
CS(=O)(=O)N1CCC(Nc2ncc(C(F)(F)F)c(-c3cn(-c4c(F)cccc4Cl)cn3)n2)CC1 [Example 54, 4-(1-(2-Chloro-6-fluorophenyl)-1H-imidazol-4-yl)-N-(1-(methylsulfonyl)piperidin-4-yl)-5-(trifluoromethyl)pyrimidin-2-amine]
O=S(=O)(C1CC1)N1CCC(Nc2ncc(C(F)(F)F)c(-c3cn(-c4cccnc4C(F)(F)F)cn3)n2)CC1 [Example 91, N-(1-(Cyclopropylsulfonyl)piperidin-4-yl)-5-(trifluoromethyl)-4-(1-(2-(trifluoromethyl)pyridin-3-yl)-1H-imidazol-4-yl)pyrimidin-2-amine]
